For one experiment, the system named is caspase-3. In words: Caspase-3 activity assay (Ac-DEVD-pNA) in cytosol extracts. It counts as cell-based, human. Particulars: 50 μM pan-caspase inhibitor, 10 μM BMS-345541.
The subject of experiment [1] is SK-Mel-5 cells. As to the kind of experiment: Western blot / confocal analysis of apoptotic proteins in subcellular fractions. Particulars: 50 μM with 10 μM BMS-345541, Western blot and confocal microscopy. It counts as cell-based, human.
Experimental: Subcellular mitochondria and cytoplasm were prepared and subjected to Western blot analysis for Bcl-2 and Bax. […] After exposure, mitochondria were isolated and incubated with 80 μM 3,3′dihexyloxacarbocyanine iodide (DiOC6) at 37° C. for 15 min. Δψm was determined by FACS analysis using 484/530 nm filters within 10 min while gating the forward and sideward scatters on intact mitochondria (FIG. 5C). […] Subcellular extracts were prepared and subjected to Western blot analysis for cytochrome-C and AIF. […] The supernatant was assessed for cytochrome-c release. 200 μM Ca^2+ was used as a positive control.
The cellular caspase-3 activity in samples was detected as described in Materials and Methods. […] Cells were fixed and stained with propidium iodide staining as described in FIG. 4H. The percentage of cell death was measured with flow cytometry. […] Cytosol was extracted and subjected to Western blot analysis for AIF, cytochrome-c (cyto-C) and actin. Actin was used as a loading control protein. […] Ref-1 was used as a nuclear marker protein. All data shown here were from three independent experiments. […] SK-Mel-5 cells were exposed to 10 μM BMS and/or pan-caspase inhibitor (Z-VAD-fmk, 50 μM).
Proteins from cell extracts were separated by 12% SDS-PAGE and electrophoretically transferred to nitrocellulose membranes. Nonspecific binding was blocked with 5% milk in TBST buffer (4 mM Tris base, 100 mM NaCl, pH 7.5, 0.05% Tween), incubated with the indicated primary antibodies with a dilution of 1:1000 at room temperature for 2 h or 4° C. for overnight and then with horseradish peroxidase-conjugated secondary antibody for 1 h. Blots were visualized by enhanced chemiluminescence assay.
The Mitochondria Isolation Kit (Pierce, Rockford, Ill.) was used for isolation of mitochondria from cultured melanoma cells according to the manufacture's instruction for the Reagent-based method. Briefly, cells (2×10^7) were collected, washed with PBS buffer and resuspended in 0.8 ml of Reagent A on ice for 2 min. 10 μl of Reagent B was added and samples were kept on ice, with vortexing very minute for 5 min. After addition of 0.8 ml of Reagent C, the mixture was centrifuged at 700×g for 10 min to remove the cell debris and nuclei. The supernatant was then centrifuged at 3,000×g for 15 min. The pellet (mitochondria) was washed with Reagent C. The purity of mitochondria was determined by Western blotting with β-actin, where β-actin negative preparation were fully to be pure. The supernatant (cytosolic fraction) was further cleared by centrifugation at 12,000×g for 15 min.
Cells were incubated with the anti-AIF polyclonal antibody for 2 h. Cells were washed twice and incubated with the secondary antibody conjugated with FITC for 1 h.
Experiment [2] has as its system SK-Mel-5 cells. In words: Nuclear apoptosis (DNA fragmentation) by flow cytometry. It is filed as cell-based, human. The conditions noted are these: 50 μM, 48 h, p<0.05. The procedure: FIGS. 4A-4H. […] Paraffin-embedded tumor tissues were subjected to H&E staining (FIGS. 4C & D) and DeadEnd Fluorometric TUNEL-assay for detection of apoptosis (FIGS. 4E & F). The TUNEL-positive cells are visualized in green fluorescence in a red (Propidium Iodide) background by fluorescence microscopy. […] After 36 h incubation, cells were collected and fixed with 1% formaldehyde and 70% ice-cold ethanol. The apoptotic cells were examined using TUNEL-assay and analyzed by flow cytometry through measuring fluorescein-12-dUTP at 520 nm. The apoptotic rate is indicated in each box. Data shown are represented one of three independent experiments. […] Cells were fixed and stained with Propidium iodide. Cell fluorescence was measured by flow cytometry and the data were analyzed using DNA content histogram deconvolution software (Multicycle from Phoenix Flow Systems). The percentage of apoptotic cells with fragmented DNA (PI intensity sub-G0/G1) is indicated at each time point. The experiments were repeated twice, in duplicates for each point (total n=4).
For orientation: A flow cytometer gives signals particle by particle.

The next experiment has as its system human melanoma grafts. As to the kind of experiment: Tumor growth in tumor-bearing mice treated with temozolomide. It counts as in vivo. The conditions noted are these: daily 60 mg/kg orally.

Peptide text beside a SMILES is read from it. * marks the point of attachment. Cbz = O=C(OCc1ccccc1)*; CH2F = FC*

In the case of `COC(=O)C[C@H](NC(=O)[C@H](C)NC(=O)[C@@H](NC(=O)OCc1ccccc1)C(C)C)C(=O)CF` [Z-VAD-fmk, reference compound] (Cbz-Val-Ala-Asp(OMe)-CH2F), in the experiment on caspase-3, the “block of BMS-345541 induction of caspase-3 activity” value was 87.2%. The “influence on AIF translocation to nucleus and nuclear condensation” value with SK-Mel-5 cells [1] is “failed to influence”. For the same compound, the “cells protected from nuclear apoptosis induced by 10 μM BMS-345541” value in the experiment on SK-Mel-5 cells [2] is reported as 11%.

`Cn1nnc2c(C(N)=O)ncn2c1=O` [temozolomide] showed a tumor growth inhibition with human melanoma grafts of 81%.

Source of the values: patent US20060025419A1, “Imidazoquinoxaline compound for the treatment of melanoma” (priority 2004, published 2006).
